Results as given in PubChem BioAssay (NCI).
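Dose response: 5 concentrations. Exposure: 48 h. Format: 96-well plates. Endpoint: linear interpolation; highest concentration if not reached. TGI is the concentration that stops growth completely.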

What was measured:
Assay in all cases: DTP human tumour cell line panel, 48 h
RPMI-8226 leukemia = test system: RPMI-8226 leukemia
CCRF-CEM leukemia = test system: CCRF-CEM leukemia
EKVX NSCLC = test system: EKVX NSCLC
M14 melanoma = test system: M14 melanoma
SF-268 CNS = test system: SF-268 CNS
NCI-H23 lung = test system: NCI-H23 lung
U251 CNS = test system: U251 CNS
OVCAR-4 ovarian = test system: OVCAR-4 ovarian
SK-MEL-28 melanoma = test system: SK-MEL-28 melanoma
HCC-2998 colon = test system: HCC-2998 colon
UO-31 renal = test system: UO-31 renal
NCI-H226 lung = test system: NCI-H226 lung
OVCAR-3 ovarian = test system: OVCAR-3 ovarian
HL-60(TB) leukemia = test system: HL-60(TB) leukemia
IGROV1 ovarian = test system: IGROV1 ovarian

## O=[N+]([O-])/C(C(Cl)=C(Cl)Cl)=C(\NCc1ccccc1)Sc1ccccc1
RPMI-8226 leukemia
  TGI: > 100 µM
CCRF-CEM leukemia
  TGI: > 100 µM
EKVX NSCLC
  TGI: > 100 µM
M14 melanoma
  TGI: > 100 µM
SF-268 CNS
  TGI: 57.4 µM
NCI-H23 lung
  TGI: 40.1 µM
U251 CNS
  TGI: > 100 µM
OVCAR-4 ovarian
  TGI: 75.4 µM
SK-MEL-28 melanoma
  TGI: 36.8 µM
HCC-2998 colon
  TGI: > 100 µM
UO-31 renal
  TGI: 38.3 µM
NCI-H226 lung
  TGI: 98.3 µM
OVCAR-3 ovarian
  TGI: 34.5 µM

## COC(=O)/C=C1/OC(c2ccccc2)=C(Br)C1=O
RPMI-8226 leukemia
  TGI: > 100 µM
CCRF-CEM leukemia
  TGI: > 100 µM
EKVX NSCLC
  TGI: > 100 µM
M14 melanoma
  TGI: > 100 µM
SF-268 CNS
  TGI: > 100 µM
NCI-H23 lung
  TGI: > 100 µM
U251 CNS
  TGI: > 100 µM
OVCAR-4 ovarian
  TGI: > 100 µM
HL-60(TB) leukemia
  TGI: > 100 µM
SK-MEL-28 melanoma
  TGI: > 100 µM
HCC-2998 colon
  TGI: > 100 µM
UO-31 renal
  TGI: > 100 µM
NCI-H226 lung
  TGI: > 100 µM
OVCAR-3 ovarian
  TGI: > 100 µM

## COc1ccc(/C=N/n2c(Cc3ccccc3)n[nH]c2=O)c(OC)c1
RPMI-8226 leukemia
  TGI: > 100 µM
CCRF-CEM leukemia
  TGI: > 100 µM
EKVX NSCLC
  TGI: 99.4 µM
M14 melanoma
  TGI: > 100 µM
SF-268 CNS
  TGI: 47 µM
NCI-H23 lung
  TGI: > 65.4 µM
IGROV1 ovarian
  TGI: > 100 µM
U251 CNS
  TGI: > 65.1 µM
OVCAR-4 ovarian
  TGI: > 100 µM
SK-MEL-28 melanoma
  TGI: > 100 µM
HCC-2998 colon
  TGI: > 100 µM
UO-31 renal
  TGI: > 63.1 µM
NCI-H226 lung
  TGI: > 80.9 µM
OVCAR-3 ovarian
  TGI: > 100 µM

## CCOP(=O)(OCC)/C(C#N)=C/c1cccn1C
RPMI-8226 leukemia
  TGI: > 100 µM
CCRF-CEM leukemia
  TGI: 89 µM
EKVX NSCLC
  TGI: > 100 µM
M14 melanoma
  TGI: > 100 µM
SF-268 CNS
  TGI: > 100 µM
NCI-H23 lung
  TGI: > 100 µM
IGROV1 ovarian
  TGI: > 100 µM
U251 CNS
  TGI: > 100 µM
OVCAR-4 ovarian
  TGI: > 100 µM
SK-MEL-28 melanoma
  TGI: > 100 µM
HCC-2998 colon
  TGI: > 100 µM
UO-31 renal
  TGI: 99.5 µM
NCI-H226 lung
  TGI: > 100 µM
OVCAR-3 ovarian
  TGI: > 100 µM

## COP(=O)(OC)[C@@](O)(c1ccccc1)[C@@H](O)[C@@H](O)c1ccccc1
CCRF-CEM leukemia
  TGI: 50.9 µM
EKVX NSCLC
  TGI: > 100 µM
M14 melanoma
  TGI: > 100 µM
SF-268 CNS
  TGI: > 100 µM
NCI-H23 lung
  TGI: > 100 µM
IGROV1 ovarian
  TGI: > 100 µM
U251 CNS
  TGI: > 100 µM
OVCAR-4 ovarian
  TGI: > 100 µM
HL-60(TB) leukemia
  TGI: > 100 µM
SK-MEL-28 melanoma
  TGI: > 100 µM
UO-31 renal
  TGI: > 100 µM
NCI-H226 lung
  TGI: > 100 µM
OVCAR-3 ovarian
  TGI: > 100 µM

## c1ccc(Nc2nnc(-c3ccccc3Nc3ccccc3-c3nnc(Nc4ccccc4)s3)s2)cc1
CCRF-CEM leukemia
  TGI: > 100 µM
EKVX NSCLC
  TGI: > 100 µM
M14 melanoma
  TGI: > 100 µM
SF-268 CNS
  TGI: > 100 µM
NCI-H23 lung
  TGI: > 100 µM
IGROV1 ovarian
  TGI: > 100 µM
U251 CNS
  TGI: > 100 µM
OVCAR-4 ovarian
  TGI: > 100 µM
HL-60(TB) leukemia
  TGI: > 100 µM
SK-MEL-28 melanoma
  TGI: > 100 µM
HCC-2998 colon
  TGI: > 100 µM
UO-31 renal
  TGI: > 100 µM
NCI-H226 lung
  TGI: > 100 µM
OVCAR-3 ovarian
  TGI: > 100 µM

## COc1ccc(-n2c(C)nc3ccc(NC4OCC(OC(C)=O)C(OC(C)=O)C4OC(C)=O)cc3c2=O)cc1 (stereo not drawn)
RPMI-8226 leukemia
  TGI: > 100 µM
EKVX NSCLC
  TGI: > 100 µM
SF-268 CNS
  TGI: > 100 µM
NCI-H23 lung
  TGI: > 100 µM
IGROV1 ovarian
  TGI: > 100 µM
U251 CNS
  TGI: > 100 µM
OVCAR-4 ovarian
  TGI: > 100 µM
HL-60(TB) leukemia
  TGI: > 100 µM
SK-MEL-28 melanoma
  TGI: > 100 µM
HCC-2998 colon
  TGI: > 100 µM
UO-31 renal
  TGI: > 100 µM
NCI-H226 lung
  TGI: > 100 µM
OVCAR-3 ovarian
  TGI: > 100 µM

## CC(=O)/C=C1/C(=O)C(CC(C)C)=C1CC(C)C
CCRF-CEM leukemia
  TGI: > 100 µM
EKVX NSCLC
  TGI: > 100 µM
M14 melanoma
  TGI: > 100 µM
SF-268 CNS
  TGI: > 100 µM
NCI-H23 lung
  TGI: > 100 µM
IGROV1 ovarian
  TGI: > 100 µM
U251 CNS
  TGI: > 100 µM
OVCAR-4 ovarian
  TGI: > 100 µM
HL-60(TB) leukemia
  TGI: > 100 µM
SK-MEL-28 melanoma
  TGI: > 100 µM
UO-31 renal
  TGI: > 100 µM
NCI-H226 lung
  TGI: > 100 µM

## N#Cc1ccccc1NC(=O)C(O)C(O)C(O)C(O)C=O (stereo not drawn)
CCRF-CEM leukemia
  TGI: > 100 µM
EKVX NSCLC
  TGI: > 100 µM
M14 melanoma
  TGI: > 100 µM
SF-268 CNS
  TGI: > 100 µM
NCI-H23 lung
  TGI: > 100 µM
IGROV1 ovarian
  TGI: > 100 µM
U251 CNS
  TGI: > 100 µM
OVCAR-4 ovarian
  TGI: > 100 µM
HL-60(TB) leukemia
  TGI: > 100 µM
SK-MEL-28 melanoma
  TGI: > 100 µM
HCC-2998 colon
  TGI: > 100 µM
UO-31 renal
  TGI: > 100 µM
NCI-H226 lung
  TGI: > 100 µM
OVCAR-3 ovarian
  TGI: > 100 µM

## CC1(C)COC(c2cccc(C(=O)c3ccccc3)c2)=N1
RPMI-8226 leukemia
  TGI: > 100 µM
CCRF-CEM leukemia
  TGI: > 100 µM
EKVX NSCLC
  TGI: > 100 µM
SF-268 CNS
  TGI: > 100 µM
NCI-H23 lung
  TGI: > 100 µM
IGROV1 ovarian
  TGI: > 100 µM
U251 CNS
  TGI: > 100 µM
OVCAR-4 ovarian
  TGI: > 100 µM
HL-60(TB) leukemia
  TGI: 58 µM
SK-MEL-28 melanoma
  TGI: > 100 µM
HCC-2998 colon
  TGI: > 100 µM
UO-31 renal
  TGI: > 100 µM
OVCAR-3 ovarian
  TGI: > 100 µM

## O=C(O)c1cc(-c2ccc3cc(O)c(O)cc3c2)ccc1O
CCRF-CEM leukemia
  TGI: > 12.5 µM
M14 melanoma
  TGI: > 12.5 µM
SF-268 CNS
  TGI: > 12.5 µM
NCI-H23 lung
  TGI: > 12.5 µM
IGROV1 ovarian
  TGI: > 12.5 µM
U251 CNS
  TGI: > 12.5 µM
HL-60(TB) leukemia
  TGI: > 12.5 µM
SK-MEL-28 melanoma
  TGI: > 12.5 µM
UO-31 renal
  TGI: > 12.5 µM
NCI-H226 lung
  TGI: > 12.5 µM
OVCAR-3 ovarian
  TGI: > 12.5 µM

## CC(C)(C)c1cc(C(C)(C)C)c(SSc2c(C(C)(C)C)cc(C(C)(C)C)c(O)c2O)c(O)c1O
RPMI-8226 leukemia
  TGI: 32.1 µM
CCRF-CEM leukemia
  TGI: 7.5 µM
EKVX NSCLC
  TGI: 35.7 µM
M14 melanoma
  TGI: 25.2 µM
SF-268 CNS
  TGI: 24.7 µM
NCI-H23 lung
  TGI: 22.8 µM
IGROV1 ovarian
  TGI: 26.3 µM
U251 CNS
  TGI: 22.2 µM
OVCAR-4 ovarian
  TGI: 15.5 µM
HL-60(TB) leukemia
  TGI: 14.6 µM
SK-MEL-28 melanoma
  TGI: 33.8 µM
UO-31 renal
  TGI: 18.6 µM
NCI-H226 lung
  TGI: 35 µM

## CCCCCCCCCCCC(=O)OCC(O)CO (stereo not drawn)
CCRF-CEM leukemia
  TGI: > 100 µM
EKVX NSCLC
  TGI: > 100 µM
M14 melanoma
  TGI: > 100 µM
SF-268 CNS
  TGI: > 100 µM
NCI-H23 lung
  TGI: > 100 µM
U251 CNS
  TGI: > 100 µM
OVCAR-4 ovarian
  TGI: > 100 µM
HL-60(TB) leukemia
  TGI: 42.3 µM
SK-MEL-28 melanoma
  TGI: > 100 µM
UO-31 renal
  TGI: > 100 µM
NCI-H226 lung
  TGI: > 100 µM
OVCAR-3 ovarian
  TGI: > 100 µM

## COc1ccc(-n2c(C)nc3ccc(NC4OC(COC(C)=O)C(OC(C)=O)C(OC(C)=O)C4OC(C)=O)cc3c2=O)cc1 (stereo not drawn)
RPMI-8226 leukemia
  TGI: 61.2 µM
EKVX NSCLC
  TGI: > 100 µM
SF-268 CNS
  TGI: > 100 µM
NCI-H23 lung
  TGI: > 100 µM
IGROV1 ovarian
  TGI: > 100 µM
U251 CNS
  TGI: > 100 µM
OVCAR-4 ovarian
  TGI: > 100 µM
HL-60(TB) leukemia
  TGI: 48.7 µM
SK-MEL-28 melanoma
  TGI: > 100 µM
HCC-2998 colon
  TGI: > 100 µM
UO-31 renal
  TGI: > 100 µM
NCI-H226 lung
  TGI: > 100 µM
OVCAR-3 ovarian
  TGI: > 100 µM

## O=C1CSc2ccnc(=O)n21
RPMI-8226 leukemia
  TGI: > 100 µM
CCRF-CEM leukemia
  TGI: > 100 µM
EKVX NSCLC
  TGI: > 100 µM
M14 melanoma
  TGI: > 100 µM
SF-268 CNS
  TGI: > 100 µM
NCI-H23 lung
  TGI: > 100 µM
IGROV1 ovarian
  TGI: > 100 µM
U251 CNS
  TGI: > 100 µM
OVCAR-4 ovarian
  TGI: > 100 µM
HL-60(TB) leukemia
  TGI: > 100 µM
SK-MEL-28 melanoma
  TGI: > 100 µM
HCC-2998 colon
  TGI: > 100 µM
UO-31 renal
  TGI: > 100 µM

## COc1ccccc1NC(=S)Nc1ccccn1
RPMI-8226 leukemia
  TGI: > 100 µM
CCRF-CEM leukemia
  TGI: > 100 µM
EKVX NSCLC
  TGI: > 100 µM
M14 melanoma
  TGI: > 100 µM
SF-268 CNS
  TGI: > 100 µM
IGROV1 ovarian
  TGI: > 100 µM
U251 CNS
  TGI: > 100 µM
OVCAR-4 ovarian
  TGI: > 100 µM
HL-60(TB) leukemia
  TGI: > 100 µM
SK-MEL-28 melanoma
  TGI: > 100 µM
UO-31 renal
  TGI: > 100 µM
NCI-H226 lung
  TGI: > 100 µM
OVCAR-3 ovarian
  TGI: > 100 µM

## C=Cc1c(-c2ccccc2)cnc2[nH]c3ccccc3c12
RPMI-8226 leukemia
  TGI: > 50 µM
CCRF-CEM leukemia
  TGI: > 50 µM
EKVX NSCLC
  TGI: > 50 µM
M14 melanoma
  TGI: > 50 µM
SF-268 CNS
  TGI: > 50 µM
NCI-H23 lung
  TGI: > 50 µM
IGROV1 ovarian
  TGI: > 50 µM
U251 CNS
  TGI: > 50 µM
OVCAR-4 ovarian
  TGI: > 50 µM
HL-60(TB) leukemia
  TGI: > 50 µM
SK-MEL-28 melanoma
  TGI: > 50 µM
HCC-2998 colon
  TGI: > 50 µM
UO-31 renal
  TGI: > 50 µM
OVCAR-3 ovarian
  TGI: > 50 µM
